Legend:
Format in all cases: in vivo, mouse
histone H3 and H4 = experiment: Histone acetylation in the brain (western blot); conditions: within an hour of i.p. administration; Vo 50 mg/Kg in PEG; HPBCD 2000 mg/Kg
Protocol: Npc1^nmf164 mice (6-7 weeks) were injected with either Vorinostat (50 mg/kg) or TCF through i.p route. Mice were sacrificed 1 hpi (1 hour post-injection) by asphyxiation using CO2. After homogenization of tissue, Histones were extracted using EpiQuik Total Histone extraction kit (Epigentek, NY, USA) as per manufacturer's instructions. Antibodies to Histone H3 (Lys14) and H4 (Lys5/8/12/16) from Millipore (CA, USA) were used in western blotting.

Calbindin1 transcripts = experiment: qPCR of Calbindin1 transcripts in the brain; conditions: day 100, once weekly dosing; Vo 50 mg/Kg; 2×HPBCD 4000 mg/Kg; TCF
Protocol: (§1) Vorinostat (50 mg/Kg)—Vorinostat was first dissolved in DMSO (100 mg/ml) and then diluted with 9 volume of Polyethylene Glycol 400 (PEG). This drug solution was named as ‘solution A’. Solution A was diluted with equal volume of water where the final concentration of each component was as follows; Vorinostat, 5 mg/ml; DMSO, 5% and PEG, 45%. Mice were given weekly intraperitoneal (i.p) injections starting at 21 days. Vorinostat (100 mg/Kg)—Vorinostat was first dissolved in DMSO (200 mg/ml) and then mixed with 9 volumes of PEG. Rest of the methods and injections plan were as described above. HPBCD (4000 mg/Kg)—40% HPBCD solution prepared in water. Mice were given weekly i.p injections starting at 7 days. HPBCD (2000 mg/Kg)—20% HPBCD solution prepared in water. Mice were given weekly i.p injections starting at 7 days. TCF (Vorinostat, 50 mg/Kg+HPBCD, 2000 mg/Kg, DMSO, 5%+PEG, 45%)—To prepare the formulation, the ‘solution A’ was first prepared as described above and equal volume of 40% HPBCD solution was slowly layered on top of it. The solution was gently mixed for 10 min at RT on rocker set at medium speed. […]
(§2) Quantitative PCR (qPCR) was performed using Power SYBR Green RNA-to-CT 1-Step Kit and an ABI Prism 7500 Fast real-time PCR system (Applied Biosystems, Grand Island, USA). […] The relative amount of transcript was determined using comparative CT method. […]

Purkinje cells = experiment: Calbindin immunofluorescence, Purkinje cell count in cerebellar sections; conditions: day 100, once weekly dosing
Protocol: (§3) Mice were sacrificed by asphyxiation using CO2. Harvested organs were immersed fixed in 10% neutral buffered formalin (˜4% formaldehyde) for 24 hrs at RT. The organs were subsequently stored in 70% alcohol at RT until transfer to paraffin. Paraffin-embedded tissue sections (4-5 μm) were dewaxed in xylene and alcohol. Calbindin antigen retrieval was done by pre-incubating deparaffinized samples with 0.05% proteinase K (Dako, Germany) in 50 mM Tris-HCl (pH 7.5) for 8 min at RT. CTSS and NPC1 was retrieved by boiling the sections in acidic condition for 30 min. Blocking was done either with 2% goat serum (for calbindin and NPC1) or 2% rabbit serum (for cathepsin S) for 30 min at RT. Sections were incubated with anti-calbindin (1:1000, C9848, Sigma), anti-cathepsin S (20 μg/ml, M-19, Santa Cruz Biotechnology), anti-NPC1 (custom made against human NPC1 protein, 20 μg/ml) overnight at 4° C. The appropriate FITC or TRITC-conjugated secondary IgG (MP Biomedicals, Solon, Ohio, USA) antibodies were used at 1:200 dilution. Sections were subsequently washed with PBS containing DAPI (0.5 μg/ml). Vectashield (Vector laboratories) was used as mounting medium and processed for fluorescence microscopy.
(§4) Tissue sections after IFA and filipin stained fibroblasts were visualized with 40× oil-immersion objective lens (NA 1.35). Filipin stain was visualized using DAPI filter. Digital image collection were performed using an Olympus IX inverted fluorescence microscope and a Photometrix cooled CCD camera (CH350/LCCD) driven by DeltaVision software from Applied Precision (Seattle, Wash., USA). DeltaVision software (softWoRx) was used to deconvolve these images. Images are single optical sections. Images were analyzed using ImageJ software (NIH, MD, USA).

Npc1^nmf164 mice = experiment: Neurobehavioral assessment (cumulative disease score 0-13); conditions: for cumulative neurobehavioral disease score: at 105-112 days, scale 0-13, Vo 50 mg/Kg, 2×HPBCD 4000 mg/Kg, TCF; for onset of individual symptoms (gait, grooming, limb tone, weight): weekly i.p. treatment
Protocol: A modified version of previously described method (Carroll et al., 2010) was used for assessing the neurobehavioral functions in mice. Six different parameters (FIG. 3A) associated with neurobehavioral functions of mice were assessed. Each mouse was assessed individually in an observation box (length, 31.8 cm, width, 19.8 cm and height, 10.5 cm) with a grid floor. A mouse was assessed for tremor (0 and 2), body position (0, 1 and 2), gait (0, 1 and 2), grooming (0, 1 and 2), limb tone (0, 1 and 2), and weight loss (0, 1, 2 and 3). For each symptom except weight, a mouse received a score 0 if no symptom was observed and score 2 when the most severe impairment in the function was seen. A mouse was given score 0 for weight loss below 5%, 1 for 5-10%, 2 for >10 and up to 20%, and 3 for >20 up to 30%. A cumulative score of 0-3 correlate with no neurobehavioral impairment and a score of 13 is the most impaired neurobehavioral function. Operator-independence scoring was also tested by two independent blinded operators on 6 NPC (Npc1^nmf164) and 4 healthy control (Npc1^+/nmf164) mice.

macrophages in the liver = experiment: Liver macrophage labeling (anti-CTSS immunofluorescence); conditions: 100 days, Vo 50 mg/Kg, HPBCD 2000 mg/Kg, TCF
Protocol: as §3, §4

Npc1 transcript = experiment: qPCR of Npc1 transcript in brain; conditions: at 100 days
Protocol: as §1, §2

CC(O)COC[C@H]1O[C@@H]2O[C@H]3[C@H](O)[C@@H](O)[C@@H](O[C@H]4[C@H](O)[C@@H](O)[C@@H](O[C@H]5[C@H](O)[C@@H](O)[C@@H](O[C@H]6[C@H](O)[C@@H](O)[C@@H](O[C@H]7[C@H](O)[C@@H](O)[C@@H](O[C@H]8[C@H](O)[C@@H](O)[C@@H](O[C@H]1[C@H](O)[C@H]2O)O[C@@H]8COCC(C)O)O[C@@H]7COCC(C)O)O[C@@H]6COCC(C)O)O[C@@H]5COCC(C)O)O[C@@H]4COCC(C)O)O[C@@H]3COCC(C)O (stereo partly drawn) [HPBCD, 2-Hydroxypropyl-β-cyclodextrin]
acetylation of histone 3 or 4 (H3 or H4) in the brain (in words) (histone H3 and H4): neither vehicle control (PEG+DMSO) nor HPBCD stimulated significant acetylation | expression of calbindin transcripts in the brain (Calbindin1 transcripts): no change or depressed levels of calbindin transcripts | Purkinje cells in the cerebellum (in words) (Purkinje cells): Few lightly stained Purkinje cells | Purkinje cells in the cerebellum (in words) (Purkinje cells; listed as 2×HPBCD): minor protection of Purkinje cell | cumulative neurobehavioral disease score (Npc1^nmf164 mice): 6-8 | onset of individual symptoms (gait, grooming, limb tone, weight) (Npc1^nmf164 mice): Worsening in gait, grooming and weight were also delayed by 2×HPBCD, but less so than by the TCF | macrophages in the liver (histology) (macrophages in the liver): Foamy macrophages were barely seen | Npc1 transcript levels in the brain (Npc1 transcript): little or no effect on brain Npc1 transcript levels

O=C(CCCCCCC(=O)Nc1ccccc1)NO [vorinostat]
acetylation of histone 3 or 4 (H3 or H4) in the brain (in words) (histone H3 and H4): low levels of acetylation | expression of calbindin transcripts in the brain (Calbindin1 transcripts): no change or depressed levels of calbindin transcripts | Purkinje cells in the cerebellum (in words) (Purkinje cells): no effect | Purkinje cells in the cerebellum (in words) (Purkinje cells; listed as Vo): Loss of Purkinje cells | cumulative neurobehavioral disease score (Npc1^nmf164 mice): 9-11 | onset of individual symptoms (gait, grooming, limb tone, weight) (Npc1^nmf164 mice): no consistent, significant advantage in any symptomatic read out | macrophages in the liver (histology) (macrophages in the liver): also had effect but less so than TCF or HPBCD | macrophages in the liver (histology) (macrophages in the liver; listed as Vo): reduced the clustering of macrophages | Npc1 transcript levels in the brain (Npc1 transcript): little or no effect on brain Npc1 transcript levels
